The source of these data is patent US9290465B2, “Substituted isoxazole amine compounds as inhibitors of SCD1” (Hoffmann-La Roche Inc., priority 2012, dated 2016).

Counter-ions that a name gives are not always drawn.

The target in data set [1] is T1, SCD1 (Mus musculus, UniProt P13516).
T1 construct: Mouse liver microsomes, prepared from mice fed a high-carbohydrate diet, were a source of the SCD; from tissue; host or cells: mouse liver microsomes (mice fed a high-carbohydrate diet)
T1 sequence (P13516 1-355): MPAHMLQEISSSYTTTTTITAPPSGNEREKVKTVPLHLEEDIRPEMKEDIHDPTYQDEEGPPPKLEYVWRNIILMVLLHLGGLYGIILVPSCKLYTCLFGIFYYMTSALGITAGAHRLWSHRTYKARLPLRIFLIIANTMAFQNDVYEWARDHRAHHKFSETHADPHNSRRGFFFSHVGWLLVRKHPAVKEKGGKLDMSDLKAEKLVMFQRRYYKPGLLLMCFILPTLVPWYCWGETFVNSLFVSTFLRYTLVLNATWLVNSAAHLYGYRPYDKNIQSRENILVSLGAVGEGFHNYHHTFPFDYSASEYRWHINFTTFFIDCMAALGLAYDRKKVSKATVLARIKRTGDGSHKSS
The data set is described as follows: SCD assay: release of tritiated water from desaturation of 9,10-3H-stearoyl CoA, mouse liver microsomes. In kind it is biochemical. Particulars: mouse liver microsomes as SCD source; 300 nM (9,10) 3H-stearoyl CoA; 25 minutes at rt; read-out: IC50 (nM), in vitro inhibition of SCD1. An excerpt:
Stearoyl CoA desaturase activity was monitored by a modification of the acyl carrier protein assay described by B. R. Talamo and K. Bloch in Anal. Biochem. 1968, 29, 300-304. The SCD assay monitors the release of tritiated water from the desaturation of 9,10-^3H-stearoyl CoA.
Mouse liver microsomes, prepared from mice fed a high-carbohydrate diet, were a source of the SCD and cyt b5 and cyt b5 reductase, necessary accessory proteins for the coupled reaction. Reaction mixtures for compound titrations contained 50 mM Tris HCl pH 7.5, 100 mM NaCl, 0.165 mg/mL BSA, 2.4% DMSO, 1 mM NADH, 0.03% T-20, and 300 nM (9,10) ^3H-stearoyl CoA (Perkin-Elmer). Reactions were initiated upon the addition of 4 ug/mL SCD microsomes. Incubations were terminated after 25 minutes at rt with cold 6% TCA. After standing 10 minutes at 4° C., samples were centrifuged 15 minutes at 4000 rpm to pellet precipitated protein. Supernatants were added to microtiter plates containing suspensions of activated charcoal (Darco G-60, Fisher Scientific) and mixed by inversion. Plates were then centrifuged to separate ^3H—H2O product from charcoal-bound reactants. Supernatants were quantitated in a Perkin Elmer Topcount 384 after solubilization in ScintiSafe Plus 50% (Fisher Scientific).
Inhibition (%) of SCD activity by compounds was calculated according to the following formula: % Inhibition=100*[1−(CPMsample−CPMblank)/(CPMtotal−CPMblank)].
(In general: Microsomes from liver hold many membrane-bound enzymes, among them those of drug oxidation.)

Usually IC50 stands for the concentration that gives 50% inhibition. For the compound `Cc1ccc(COc2ccc(-c3nocc3N)cc2)cc1C` [Example 23, 3-[4-(3,4-Dimethyl-benzyloxy)-phenyl]-isoxazol-4-ylamine hydrochloride], the IC50 in data set [1] amounted to 148 nM.

Consider `Nc1conc1-c1ccc(OCc2ccc(C(F)(F)F)cc2)cc1` [Example 19, 3-[4-(4-Trifluoromethyl-benzyloxy)-phenyl]-isoxazol-4-ylamine hydrochloride], for which the IC50 in data set [1] was 391 nM.

With `Nc1conc1-c1ccc(OCCCc2ccccc2)cc1` [Example 11, 3-[4-(3-Phenyl-propoxy)-phenyl]-isoxazol-4-ylamine], the IC50 in data set [1] worked out at 372 nM.

Turning to `CC(C)c1ccc(COc2ccc(-c3nocc3N)cc2)cc1` [Example 29, 3-[4-(4-Isopropyl-benzyloxy)-phenyl]-isoxazol-4-ylamine], the IC50 in data set [1] was 161 nM.

As for `Nc1conc1-c1ccc(OCc2ccc([N+](=O)[O-])cc2)cc1` [Example 16, 3-[4-(4-Nitro-benzyloxy)-phenyl]-isoxazol-4-ylamine hydrochloride], in data set [1], the IC50 amounted to 264 nM.

With `CSc1ccc(COc2ccc(-c3nocc3N)cc2)cc1` [Example 35, 3-[4-(4-Methylsulfanyl-benzyloxy)-phenyl]-isoxazol-4-ylamine hydrochloride], the IC50 in data set [1] stood at 99 nM.

Regarding `Nc1conc1-c1ccc(OCCc2ccccc2)cc1` [Example 10], in data set [1], the IC50 amounted to 1930 nM.

On to `N#Cc1cccc(COc2ccc(-c3nocc3N)cc2)c1` [Example 18, 3-[4-(4-Amino-isoxazol-3-yl)-phenoxymethyl]-benzonitrile hydrochloride], for which the IC50 in data set [1] is 315 nM.

For `CS(=O)(=O)c1ccc(CCc2ccc(-c3nocc3N)cc2)cc1` [Example 9, 3-{4-[2-(4-Methanesulfonyl-phenyl)-ethyl]-phenyl}-isoxazol-4-ylamine], the IC50 in data set [1] stood at 280 nM.

As to `Nc1conc1-c1ccc(OCC(=O)c2ccccc2)cc1` [Example 15, 2-[4-(4-Amino-isoxazol-3-yl)-phenoxy]-1-phenyl-ethanone hydrochloride], in data set [1], the IC50 is 395 nM.

As to `COC(=O)c1ccc(COc2ccc(-c3nocc3N)cc2)cc1` [Example 5, 4-[4-(4-Amino-isoxazol-3-yl)-phenoxymethyl]-benzoic acid methyl ester hydrochloride], in data set [1], the half-inhibitory concentration (IC50) was found to be 152 nM.

Regarding `CS(=O)(=O)c1ccc(NCc2ccc(-c3nocc3N)cc2)cc1` [Example 7, 3-{4-[(4-methanesulfonyl-phenylamino)-methyl]-phenyl}-isoxazol-4-ylamine hydrochloride], the IC50 in data set [1] turned out to be 817 nM.

For the compound `Nc1conc1-c1ccc(OCc2ccc(S(=O)(=O)c3ccccc3)cc2)cc1` [Example 34, 3-[4-(4-Benzenesulfonyl-benzyloxy)-phenyl]-isoxazol-4-ylamine], the IC50 in data set [1] is 673 nM.

`CS(=O)(=O)c1ccc(COc2ccc(-c3nocc3N)nc2)cc1` [Example 12, 3-[5-(4-Methanesulfonyl-benzyloxy)-pyridin-2-yl]-isoxazol-4-ylamine]: in data set [1], the IC50 worked out at 466 nM.

On to `CS(=O)(=O)c1ccc(COc2ccc(-c3nocc3N)cc2)c(Cl)c1` [Example 8, 3-[4-(2-Chloro-4-methanesulfonyl-benzyloxy)-phenyl]-isoxazol-4-ylamine], for which the IC50 in data set [1] worked out at 191 nM.

A word on the melting point: it is the temperature, or range, at which the solid turns liquid. `Nc1conc1-c1ccc(OCc2ccc(Cl)cc2)cc1` (as salt: hydrochloride) [Example 25, 3-[4-(4-Chloro-benzyloxy)-phenyl]-isoxazol-4-ylamine hydrochloride] yielded a melting point of 174 to 176 °C.

On to `Nc1conc1-c1ccc(OCc2ccc3c(c2)CCS3(=O)=O)cc1` [Example 32, 3-[4-(1,1-Dioxo-2,3-dihydro-1H-1lambda*6*-benzo[b]thiophen-5-ylmethoxy)-phenyl]-isoxazol-4-ylamine], for which the IC50 in data set [1] was found to be 259 nM.

Consider `Nc1conc1-c1ccc(OCc2ccc(Cl)c(Cl)c2)cc1` [Example 26, 3-[4-(3,4-Dichloro-benzyloxy)-phenyl]-isoxazol-4-ylamine hydrochloride], for which the IC50 in data set [1] was determined as 162 nM.

For the compound `Nc1conc1-c1ccc(OCc2ccc(I)cc2)cc1` [Example 28, 3-[4-(4-Iodo-benzyloxy)-phenyl]-isoxazol-4-ylamine], the IC50 in data set [1] was 126 nM.

With `CS(=O)(=O)c1ccc(COc2ccc(-c3nocc3N)cc2)cc1` [Example 6, 3-[4-(4-Methanesulfonyl-benzyloxy)-phenyl]-isoxazol-4-ylamine], the IC50 in data set [1] came out at 40 nM.

On to `Cc1onc(-c2ccc(OCc3ccc(S(C)(=O)=O)cc3)cc2)c1N` [Example 13, 3-[4-(4-Methanesulfonyl-benzyloxy)-phenyl]-5-methyl-isoxazol-4-ylamine], for which the IC50 in data set [1] came to 864 nM.

As to `CCS(=O)(=O)c1ccc(COc2ccc(-c3nocc3N)cc2)cc1` [Example 31, 3-[4-(4-Ethanesulfonyl-benzyloxy)-phenyl]-isoxazol-4-ylamine], in data set [1], the IC50 was determined as 65 nM.

Consider `Nc1conc1-c1ccc(OCc2cccnc2)cc1` [Example 14, 3-[4-(Pyridin-3-ylmethoxy)-phenyl]-isoxazol-4-ylamine], for which, in data set [1], the half-maximal inhibitory concentration (IC50) was 2200 nM.

As for `Nc1conc1-c1ccc(OCc2cccc(OC(F)(F)F)c2)cc1` [Example 24, 3-[4-(3-Trifluoromethoxy-benzyloxy)-phenyl]-isoxazol-4-ylamine hydrochloride], the IC50 in data set [1] came out at 1350 nM.

Regarding `Nc1conc1-c1ccc(OCc2ccccc2)cc1` [Example 3, 3-(4-Benzyloxy-phenyl)-isoxazol-4-ylamine], the IC50 in data set [1] was 464 nM.

`COc1ccc(COc2ccc(-c3nocc3N)cc2)cc1` [Example 4, 3-[4-(4-Methoxy-benzyloxy)-phenyl]-isoxazol-4-ylamine] had a melting point of 92 to 98 °C. Further, the IC50 in data set [1] was 104 nM.

Regarding `Nc1conc1-c1ccc(OCc2ccc(SC(F)(F)F)cc2)cc1` [Example 36, 3-[4-(4-Trifluoromethylsulfanyl-benzyloxy)-phenyl]-isoxazol-4-ylamine hydrochloride], the IC50 in data set [1] was found to be 51 nM.

As for `Nc1conc1-c1ccc(OCc2ccc(Cl)cc2)cc1` [Example 25, 3-[4-(4-Chloro-benzyloxy)-phenyl]-isoxazol-4-ylamine hydrochloride], in data set [1], the 50% inhibitory concentration (IC50) worked out at 246 nM.

For `N#Cc1ccc(COc2ccc(-c3nocc3N)cc2)cc1` [Example 17, 4-[4-(4-Amino-isoxazol-3-yl)-phenoxymethyl]-benzonitrile hydrochloride], in data set [1], the IC50 amounted to 603 nM.

Consider `Nc1conc1-c1ccc(OCc2ccc(F)cc2)cc1` [Example 2, 3-[4-(4-Fluoro-benzyloxy)-phenyl]-isoxazol-4-ylamine], for which the IC50 in data set [1] is 612 nM.

As to `Nc1conc1-c1ccc(OCc2cc(F)cc(F)c2)cc1` [Example 21, 3-[4-(3,5-Difluoro-benzyloxy)-phenyl]-isoxazol-4-ylamine hydrochloride], in data set [1], the IC50 worked out at 257 nM.

Take `Cc1ccc(COc2ccc(-c3nocc3N)cc2)cc1` [Example 27, 3-[4-(4-Methyl-benzyloxy)-phenyl]-isoxazol-4-ylamine hydrochloride]: the 50% inhibitory concentration (IC50) in data set [1] is 196 nM.

As to `Nc1conc1-c1ccc(OCc2ccccc2Cl)cc1` [Example 22, 3-[4-(2-Chloro-benzyloxy)-phenyl]-isoxazol-4-ylamine hydrochloride], the IC50 in data set [1] was 1740 nM.

For `Nc1conc1-c1ccc(OCc2ccc3c(c2)C=CS3(=O)=O)cc1` [Example 33, 3-[4-(1,1-Dioxo-1H-1lambda*6*-benzo[b]thiophen-5-ylmethoxy)-phenyl]-isoxazol-4-ylamine], the IC50 in data set [1] worked out at 411 nM.

Consider `Nc1conc1-c1ccc(OCc2ccc(OC(F)(F)F)cc2)cc1` [Example 20, 3-[4-(4-Trifluoromethoxy-benzyloxy)-phenyl]-isoxazol-4-ylamine hydrochloride], for which the IC50 in data set [1] was determined as 135 nM.
